Measured values: patent publication US11987571B1, “Ethyl 2-[9-(6-chloro-2-hydroxyquinolin-3-yl)-3,6-diphenyl-1,8-dioxo-3,4,9,10-tetrahydroacridine-10-yl]-acetate as an antimicrobial compound” (KING FAISAL UNIVERSITY, priority 2023, dated 2024)

Columns and labels:
[1] = tested on: Staphylococcus aureus; test: Antimicrobial activity by agar dilution, St. Aereus; format: cell-based; conditions: after 10, 20, 40 and 60 minutes at all dilutions 1:100, 1:200, 1:400, and 1:800
Method: (§1) The antibacterial properties of the synthesized compound (ethyl 2-[9-(6-chloro-2-hydroxyquinolin-3-yl)-3,6-diphenyl-1,8-dioxo-3,4,9,10-tetrahydroacridine-10-yl]-acetate) were studied by the method of agar dilution. Test solutions of each compound was prepared in concentration of 1% using dimethylformamide as a solvent. Then they were diluted in physiological solution to obtain the final experimental dilutions of 1:100, 1:200, 1:400, and 1:800. The effect of these substances were compared with furacillin in a controllable study. The testing microbes used were gram positive bacteria Staphylococcus aureus, gram negative bacteria Pseudomonas aeruginosa, Escherichia coli, and Candida albicans fungus. The experiments used for this survey were meat-pentonlu agar (EPA) for cultivation of bacteria and Saburo environment for fungi. Each experiment used 1 mL of test solution on each plate for […]. Two drops of emulsified with microbes feel were added. All experimental samples were taken from the agar after 10, 20, 40, 60 minutes in the environment on the basis of Patrk planted. Bacteria were cultivated at a temperature of 37° C. for 1 day and the mushroom was kept in a thermostat for […] at a temperature of 28° C. Then results were checked. Those of control and the antimicrobial activity for the synthesized compounds are listed in Table 1 below, with furacillin serving as a reference.

[2] = tested on: Pseudomonas aeruginosa; test: Antimicrobial activity by agar dilution, Ps. aeruginosa; format: cell-based; conditions: after 10, 20, 40 and 60 minutes at all dilutions 1:100, 1:200, 1:400, and 1:800
Method: as §1

[3] = tested on: Candida albicans; test: Antimicrobial activity by agar dilution, Candida albicans; format: cell-based; conditions: after 10, 20, 40 and 60 minutes at all dilutions 1:100, 1:200, 1:400, and 1:800
Method: as §1

[4] = tested on: Escherichia coli; test: Antimicrobial activity by agar dilution, E. Coli; format: cell-based; conditions: after 10, 20, 40 and 60 minutes at all dilutions 1:100, 1:200, 1:400, and 1:800
Method: as §1

With `CCOC(=O)CN1C2=C(C(=O)CC(c3ccccc3)C2)C(c2cc3cc(Cl)ccc3nc2O)C2=C1CC(c1ccccc1)CC2=O` (centres unmarked) [ethyl 2-[9-(6-chloro-2-hydroxyquinolin-3-yl)-3,6-diphenyl-1,8-dioxo-3,4,9,10-tetrahydroacridine-10-yl]-acetate] the “inhibition activity compared with Furacilin” value [1] was “higher inhibition activity”, the “inhibition activity compared with Furacilin” value [2] was “higher inhibition activity” and the “inhibition activity compared with Furacilin” value [3] was “higher inhibition activity”. For the same compound, the melting point was 222 °C and the “inhibition activity compared with Furacilin” value [4] was “higher inhibition activity”.
